# Experimental data reported in ChEMBL document CHEMBL2074493, “Reversal of multidrug resistance-associated protein-mediated drug resistance by the pyridine analog PAK-104P” (Mol Pharmacol, 1997).
# Tests used:
# [1] = molecular target: T1, Multidrug resistance-associated protein 1 (Homo sapiens, UniProt P33527); test: TP_TRANSPORTER: increase in Vincristine intracellular accumulation (Vincristine: 1 uM, PAK-104P: 10 uM) in KB-3-1 and C-A120 cell; format: functional, cell-based; details: kb-3-1;c-a120, 10 µM
# [2] = molecular target: T1, Multidrug resistance-associated protein 1; test: TP_TRANSPORTER: intracellular accumulation in KB-3-1 and C-A120 cells; format: functional, cell-based, KB-3-1; C-A120
# T1 sequence (P33527 whole entry): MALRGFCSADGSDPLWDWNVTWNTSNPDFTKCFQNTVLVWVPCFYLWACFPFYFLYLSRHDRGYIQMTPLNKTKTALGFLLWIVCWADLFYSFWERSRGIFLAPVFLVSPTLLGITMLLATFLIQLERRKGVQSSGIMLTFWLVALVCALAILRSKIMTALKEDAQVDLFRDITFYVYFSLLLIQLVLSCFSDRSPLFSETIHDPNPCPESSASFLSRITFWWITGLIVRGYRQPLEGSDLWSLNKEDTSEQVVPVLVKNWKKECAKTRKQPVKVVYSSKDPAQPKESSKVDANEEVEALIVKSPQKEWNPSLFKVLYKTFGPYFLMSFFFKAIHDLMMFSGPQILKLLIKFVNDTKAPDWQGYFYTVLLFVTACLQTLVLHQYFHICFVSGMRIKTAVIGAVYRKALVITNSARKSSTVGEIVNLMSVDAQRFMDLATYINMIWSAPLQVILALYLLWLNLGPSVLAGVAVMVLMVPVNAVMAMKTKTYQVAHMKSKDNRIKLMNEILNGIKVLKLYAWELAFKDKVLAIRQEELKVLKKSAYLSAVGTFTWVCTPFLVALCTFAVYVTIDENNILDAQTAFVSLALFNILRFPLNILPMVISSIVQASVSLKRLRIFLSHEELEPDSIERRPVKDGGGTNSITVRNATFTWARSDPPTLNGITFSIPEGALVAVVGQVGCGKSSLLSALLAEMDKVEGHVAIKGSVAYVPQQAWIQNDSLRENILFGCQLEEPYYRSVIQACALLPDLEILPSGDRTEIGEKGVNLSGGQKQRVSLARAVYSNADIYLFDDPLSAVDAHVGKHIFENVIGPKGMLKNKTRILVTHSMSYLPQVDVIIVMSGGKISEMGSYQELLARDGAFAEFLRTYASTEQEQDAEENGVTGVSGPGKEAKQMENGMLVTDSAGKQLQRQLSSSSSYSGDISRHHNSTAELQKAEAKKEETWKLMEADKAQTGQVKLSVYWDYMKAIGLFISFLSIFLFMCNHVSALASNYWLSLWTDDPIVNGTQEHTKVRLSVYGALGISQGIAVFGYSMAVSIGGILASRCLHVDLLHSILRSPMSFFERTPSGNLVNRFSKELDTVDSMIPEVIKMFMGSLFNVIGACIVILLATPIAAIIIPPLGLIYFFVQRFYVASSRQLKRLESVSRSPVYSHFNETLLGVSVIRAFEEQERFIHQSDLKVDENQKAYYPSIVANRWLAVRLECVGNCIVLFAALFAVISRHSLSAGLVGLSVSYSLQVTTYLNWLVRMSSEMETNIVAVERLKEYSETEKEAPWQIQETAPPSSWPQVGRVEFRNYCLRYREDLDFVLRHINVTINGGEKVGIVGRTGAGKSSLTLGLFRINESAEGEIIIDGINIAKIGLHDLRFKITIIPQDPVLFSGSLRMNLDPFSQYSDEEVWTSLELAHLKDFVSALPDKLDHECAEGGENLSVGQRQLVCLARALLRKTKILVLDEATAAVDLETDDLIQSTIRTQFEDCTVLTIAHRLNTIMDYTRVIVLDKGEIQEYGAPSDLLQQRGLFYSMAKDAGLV
SMILES,Activity [1],Activity [2]
Cc1nc(C)c(P2(=O)O[C@H](C)C[C@@H](C)O2)c(-c2cccc([N+](=O)[O-])c2)c1C(=O)OCCN1CCN(C(c2ccccc2)c2ccccc2)CC1 (some centres not stated),inhibitor [1.3 to 1.7-fold],
CC[C@]1(O)C[C@H]2CN(CCc3c([nH]c4ccccc34)[C@@](C(=O)OC)(c3cc4c(cc3OC)N(C=O)[C@H]3[C@@](O)(C(=O)OC)[C@H](OC(C)=O)[C@]5(CC)C=CCN6CC[C@]43[C@@H]65)C2)C1 [VINCRISTINE],,substrate [+]
